Laboratory results as given in ChEMBL document CHEMBL1201862, “PubChem BioAssay data set” (2004).
Counter-ions that a name gives are not always drawn.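 Compound exposure: 48 hours, 5 concentrations, 96-well plates. Abbreviation: GI50, concentration required for 50% inhibition of growth.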 Active and inactive are the calls of the source. Rule as the data show it: active = GI50 up to about 1.1 µM and inactive = higher.

Tests used:
Experiment in all cases: DTP human tumour cell line panel, 48 h
[1] = system: HCT-15
[2] = system: A498
[3] = system: OVCAR-3
[4] = system: EKVX
[5] = system: HT-29
[6] = system: M19-MEL
[7] = system: SNB-19
[8] = system: PC-3
[9] = system: HCT-116
[10] = system: OVCAR-4
[11] = system: RPMI-8226
[12] = system: HOP-62
[13] = system: SK-MEL-2
[14] = system: A549
[15] = system: 786-0
[16] = system: MOLT-4
[17] = system: UO-31
[18] = system: NCI-H23
[19] = system: SK-MEL-28
[20] = system: SF-539

Row | SMILES | GI50 [1] [µM] | GI50 [2] | GI50 [3] | GI50 [4] | GI50 [5] | GI50 [6] | GI50 [7] | GI50 [8] | GI50 [9] | GI50 [10] | GI50 [11] | GI50 [12] | GI50 [13] | GI50 [14] | GI50 [15] | GI50 [16] | GI50 [17] | GI50 [18] | GI50 [19] | GI50 [20]
1 | O=C(O)CC(NC(=O)CP(=O)(O)O)C(=O)O (centres undefined) | 146 | 2470 µM (inactive) | 910 µM (inactive) | 2000 µM (inactive) | 185 µM (inactive) | 97.9 µM (inactive) | 103 µM (inactive) | 1640 µM (inactive) | 21.5 µM (inactive) | 2180 µM (inactive) | 244 µM (inactive) | 313 µM (inactive) | 2470 µM (inactive) | 47.4 µM (inactive) | 40 µM (inactive) | 238 µM (inactive) | 690 µM (inactive) | 2800 µM (inactive) |  | 
2 | CC1=NCCc2c1[nH]c1cc(O)ccc21 [HARMALOL HYDROCHLORIDE] | > 100 | > 100 µM (inactive) | > 100 µM (inactive) | > 100 µM (inactive) | > 100 µM (inactive) | > 100 µM (inactive) | > 100 µM (inactive) |  | > 100 µM (inactive) | > 100 µM (inactive) | > 100 µM (inactive) | > 100 µM (inactive) | > 100 µM (inactive) | > 100 µM (inactive) | > 100 µM (inactive) | > 100 µM (inactive) | > 100 µM (inactive) | > 100 µM (inactive) | > 100 µM (inactive) | > 100 µM (inactive)
3 | CC(C)S(=O)(=O)n1c(N)nc2ccc(/C(=N/O)c3ccccc3)cc21 [ENVIROXIME] | 23.4 | 8.32 µM (inactive) | 18.6 µM (inactive) | 16.4 µM (inactive) | 16.9 µM (inactive) | 34 µM (inactive) | 30 µM (inactive) |  | 18.6 µM (inactive) | 23.5 µM (inactive) | 10.3 µM (inactive) | 13.9 µM (inactive) | 20.9 µM (inactive) | 14.2 µM (inactive) | 40.3 µM (inactive) | 14 µM (inactive) | 17.3 µM (inactive) | 21.8 µM (inactive) | 36.1 µM (inactive) | 15 µM (inactive)
4 | Clc1ccc(/N=N/c2nc3ccccc3nc2/N=N/c2ccc(Cl)cc2Cl)c(Cl)c1 | > 100 | > 100 µM (inactive) | 70 µM (inactive) | > 100 µM (inactive) | > 100 µM (inactive) | > 100 µM (inactive) | 65.8 µM (inactive) |  | > 100 µM (inactive) | > 100 µM (inactive) | > 100 µM (inactive) | > 100 µM (inactive) | > 100 µM (inactive) | > 100 µM (inactive) | 85.5 µM (inactive) | 29.4 µM (inactive) | > 100 µM (inactive) | > 100 µM (inactive) | > 100 µM (inactive) | > 100 µM (inactive)
5 | COCN/C(N)=N/C#N | 15.7 | > 100 µM (inactive) | > 100 µM (inactive) | > 100 µM (inactive) | > 100 µM (inactive) | 41.7 µM (inactive) | > 100 µM (inactive) |  | 75 µM (inactive) | > 100 µM (inactive) | > 100 µM (inactive) | > 100 µM (inactive) | > 100 µM (inactive) | > 100 µM (inactive) | 80.4 µM (inactive) | > 100 µM (inactive) | > 100 µM (inactive) | > 100 µM (inactive) | > 100 µM (inactive) | > 100 µM (inactive)
6 | O=C1C(Cl)=C(Cl)C(=O)N1c1ccc(F)cc1 [FLUOROIMIDE] | 16.2 | > 100 µM (inactive) | 17.5 µM (inactive) | 21.4 µM (inactive) | 22.5 µM (inactive) | 19.5 µM (inactive) | > 58.3 µM (inactive) | 16.3 µM (inactive) | 26 µM (inactive) | 16.3 µM (inactive) | 15.1 µM (inactive) | > 67.9 µM (inactive) | 46.1 µM (inactive) | 97.9 µM (inactive) | 16.4 µM (inactive) | 6.22 µM (inactive) | 22 µM (inactive) | 17.5 µM (inactive) | 19.7 µM (inactive) | 23.5 µM (inactive)
7 | CCCCc1c2c(nc3c1CCC/C3=C\c1ccccc1)C(=O)C(CN(C)C)CC2 (centres undefined) | 8.97 | 18.7 µM (inactive) | 19.5 µM (inactive) | 18.5 µM (inactive) | 12.4 µM (inactive) | 16.7 µM (inactive) | 18.3 µM (inactive) | 14.1 µM (inactive) | 16 µM (inactive) | 14.3 µM (inactive) | 4.17 µM (inactive) | 16.5 µM (inactive) | 20.2 µM (inactive) | 19.9 µM (inactive) | 10 µM (inactive) | 2.86 µM (inactive) | 18.9 µM (inactive) | 16.5 µM (inactive) | 14.8 µM (inactive) | 20.7 µM (inactive)
